Results reported in patent publication US12528818B2, “Compositions and methods for inhibition of RAS” (Leidos Biomedical Research, Inc., priority 2021, dated 2026).
Like-named read-outs stand apart in the source and are kept apart here.

System: pERK in NCI-H358 cells
Assay: Cell-based pERK HTRF assay (pERK inhibition in H358 cells)
Settings: pERK inhibition IC50, NCI-H358 cells, 30 min incubation, read-out: PERK in H358 cell

C=CC(=O)N1C[C@H](N(C)c2nc(OC[C@@]34CCCN3C[C@H](F)C4)nc3c(F)c(-c4ccc(F)c5sc(N)nc45)c(C(F)(F)F)cc23)C[C@H]1C [Compound 274]
IC50 (Homo sapiens, NCI-H358, 0.5 h): < 100 nM

C=CC(=O)N1CC[C@@H](N(C)c2nc(OC[C@@]34CCCN3C[C@H](F)C4)nc3c(F)c(-c4ccc(F)c5oc(N)nc45)c(C(F)(F)F)cc23)C1 [Compound 275]
IC50 (Homo sapiens, NCI-H358, 0.5 h): < 100 nM

C=CC(=O)N1C[C@@H](F)[C@@H](N(C)c2nc(OC[C@@]34CCCN3C[C@H](F)C4)nc3c(F)c(-c4ccc(F)c5sc(N)nc45)c(C(F)(F)F)cc23)C1 [Compound 279]
IC50 (Homo sapiens, NCI-H358, 0.5 h): < 100 nM

C=CC(=O)N1C[C@H](C)N(c2nc(OC[C@@]34CCCN3C[C@H](F)C4)nc3c(F)c(-c4ccc(F)c5sc(N)nc45)c(OC(F)F)cc23)C[C@H]1C [Compound 280]
IC50 (Homo sapiens, NCI-H358, 0.5 h): < 100 nM

C=CC(=O)N1C[C@H](C)N(c2nc(OCC34CCCN3CCC4)nc3c(F)c(-c4ccc(F)c5sc(N)nc45)c(C(F)(F)F)cc23)C[C@H]1C [Compound 281]
IC50 (Homo sapiens, NCI-H358, 0.5 h): < 100 nM

C=CC(=O)N1C[C@@H]2C[C@H]1[C@@H]2N(C)c1nc(OC[C@@]23CCCN2C[C@H](F)C3)nc2c(F)c(-c3ccc(F)c4sc(N)nc34)c(C(F)(F)F)cc12 [Compound 282]
IC50 (Homo sapiens, NCI-H358, 0.5 h): > 1000 nM

C=CC(=O)N1C[C@@H](N(C)c2nc(OC[C@@]34CCCN3C[C@H](F)C4)nc3c(F)c(-c4ccc(F)c5sc(N)nc45)c(C(F)(F)F)cc23)C(C)(C)C1 [Compound 283]
IC50 (Homo sapiens, NCI-H358, 0.5 h): > 1000 nM

C=CC(=O)N1CCN(c2nc(OCC34CCCN3CCC4)nc3c(F)c(-c4ccc(F)c5sc(N)nc45)c(C(C)(F)F)cc23)CC1 [Compound 284]
IC50 (Homo sapiens, NCI-H358, 0.5 h): > 1000 nM

C=CC(=O)N1C[C@H](C)N(c2nc(OCC3(CN4CCOCC4)CC3)nc3c(F)c(-c4ccc(F)c5sc(N)nc45)c(C(F)(F)F)cc23)C[C@H]1C [Compound 285]
IC50 (Homo sapiens, NCI-H358, 0.5 h): < 100 nM

C=CC(=O)N1C[C@H](C)N(c2nc(OCC3(CN4CC[C@@H](F)C4)CC3)nc3c(F)c(-c4ccc(F)c5sc(N)nc45)c(C(F)(F)F)cc23)C[C@H]1C [Compound 286]
IC50 (Homo sapiens, NCI-H358, 0.5 h): < 100 nM

C=CC(=O)N1CC[C@@H](N(C)c2nc(OCC3(CN4CCOCC4)CC3)nc3c(F)c(-c4ccc(F)c5sc(N)nc45)c(C(F)(F)F)cc23)C1 [Compound 287]
IC50 (Homo sapiens, NCI-H358, 0.5 h): < 100 nM

C=CC(=O)N1CC[C@@H](N(C)c2nc(OCC3(CN4CC[C@@H](F)C4)CC3)nc3c(F)c(-c4ccc(F)c5sc(N)nc45)c(C(F)(F)F)cc23)C1 [Compound 288]
IC50 (Homo sapiens, NCI-H358, 0.5 h): < 100 nM

C=CC(=O)N1CC[C@@H](N(C)c2nc(OC[C@@]34CCCN3C[C@H](OC)C4)nc3c(F)c(-c4ccc(F)c5sc(N)nc45)c(C(F)(F)F)cc23)C1 [Compound 290]
IC50 (Homo sapiens, NCI-H358, 0.5 h): < 100 nM

C=CC(=O)N1C[C@H](C)N(c2nc(OC[C@@]34CCCN3C[C@H](F)C4)nc3c(F)c(-c4ccc(F)c5sc(N)nc45)c(C(F)F)cc23)C[C@H]1C [Compound 291]
IC50 (Homo sapiens, NCI-H358, 0.5 h): < 100 nM

C=CC(=O)N1C[C@@H](C)[C@@H](N(C)c2nc(OC[C@@]34CCCN3C[C@H](F)C4)nc3c(F)c(-c4ccc(F)c5sc(N)nc45)c(C(F)(F)F)cc23)C1 [Compound 292]
IC50 (Homo sapiens, NCI-H358, 0.5 h): 100 to 1000 nM

C=CC(=O)N1C[C@H](N(C)c2nc(OC[C@@]34CCCN3C[C@H](F)C4)nc3c(F)c(-c4ccc(F)c5sc(N)nc45)c(C(F)(F)F)cc23)C[C@@H]1C [Compound 293]
IC50 (Homo sapiens, NCI-H358, 0.5 h): < 100 nM

C=CC(=O)N1C[C@H](N(C)c2nc(OC[C@@]34CCCN3C[C@H](F)C4)nc3c(F)c(-c4ccc(F)c5sc(N)nc45)c(C(F)(F)F)cc23)C2(CC2)C1 [Compound 294]
IC50 (Homo sapiens, NCI-H358, 0.5 h): < 100 nM

C=CC(=O)N1C[C@H](C)N(c2nc(OC[C@@]34CCCN3C[C@H](F)C4)nc3c(Cl)c(-c4ccc(F)c5sc(N)nc45)c(C(F)(F)F)cc23)C[C@H]1C [Compound 295, 1-((2R,5S)-4-(7-(2-amino-7-fluorobenzo[d]thiazol-4-yl)-8-chloro-2-(((2R,7aS)-2-fluorotetrahydro-1H-pyrrolizin-7a(5H)-yl)methoxy)-6-(trifluoromethyl)quinazolin-4-yl)-2,5-dimethylpiperazin-1-yl)prop-2-en-1-one]
IC50 (Homo sapiens, NCI-H358, 0.5 h): < 100 nM

C=CC(=O)N1C[C@H](C)[C@@H](N(C)c2nc(OC[C@@]34CCCN3C[C@H](F)C4)nc3c(F)c(-c4ccc(F)c5sc(N)nc45)c(C(F)(F)F)cc23)C1 [Compound 296]
IC50 (Homo sapiens, NCI-H358, 0.5 h): < 100 nM

C=CC(=O)N1C[C@H](C)N(c2nc(OC[C@@]34CCCN3C[C@H](OC)C4)nc3c(F)c(-c4ccc(F)c5sc(N)nc45)c(C(F)(F)F)cc23)C[C@H]1C [Compound 297]
IC50: < 100 nM

C=CC(=O)N1C[C@H](C)N(c2nc(OC[C@@]34CCCN3C[C@H](F)C4)nc3cc(-c4c(F)cc(F)c5sc(N)nc45)c(C(F)(F)F)cc23)C[C@H]1C [Compound 298, 1-((2R,5S)-4-(7-(2-amino-5,7-difluorobenzo[d]thiazol-4-yl)-2-(((2R,7aS)-2-fluorotetrahydro-1H-pyrrolizin-7a(5H)-yl)methoxy)-6-(trifluoromethyl)quinazolin-4-yl)-2,5-dimethylpiperazin-1-yl)prop-2-en-1-one]
IC50 (Homo sapiens, NCI-H358, 0.5 h): < 100 nM

C=CC(=O)N1C[C@H](C)N(c2nc(OC[C@@]34CCCN3C[C@H](F)C4)nc3cc(-c4ccc(F)c5sc(N)nc45)c(C(F)(F)F)cc23)C[C@H]1C [Compound 299]
IC50 (Homo sapiens, NCI-H358, 0.5 h): < 100 nM

C=CC(=O)N1CC[C@@H](N(C)c2nc(OC[C@@]34CCCN3C[C@H](F)C4)nc3cc(-c4ccc(F)c5sc(N)nc45)c(C(F)(F)F)cc23)C1 [Compound 300]
IC50 (Homo sapiens, NCI-H358, 0.5 h): < 100 nM

C=CC(=O)N1C[C@H](N(C)c2nc(OC[C@@]34CCCN3C[C@H](F)C4)nc3c(F)c(-c4ccc(F)c5sc(N)nc45)c(C(F)(F)F)cc23)C(C)(C)C1 [Compound 301]
IC50 (Homo sapiens, NCI-H358, 0.5 h): < 100 nM

C=CC(=O)N1C[C@H](C)N(c2nc(OC[C@@]34CCCN3C[C@H](F)C4)nc3cc(-c4ccc(F)c5sc(N)c(C#N)c45)c(C(F)(F)F)cc23)C[C@H]1C [Compound 304]
IC50 (Homo sapiens, NCI-H358, 0.5 h): < 100 nM

C=CC(=O)N1CC[C@@H](N(C)c2nc(OC[C@@]34CCCN3C[C@H](F)C4)nc3cc(-c4c(F)cc(F)c5sc(N)nc45)c(C(F)(F)F)cc23)C1 [Compound 305]
IC50 (Homo sapiens, NCI-H358, 0.5 h): < 100 nM

C=CC(=O)N1CC[C@@H](N(C)c2nc(OC[C@@]34CCCN3C[C@H](F)C4)nc3cc(-c4ccc(F)c5sc(N)c(C#N)c45)c(C(F)(F)F)cc23)C1 [Compound 306]
IC50 (Homo sapiens, NCI-H358, 0.5 h): < 100 nM

C=CC(=O)N1C[C@H](C)N(c2nc(OCC34CCCN3C[C@H](F)C4)nc3c(F)c(-c4ccc(F)c5sc(C(F)F)nc45)c(C(F)(F)F)cc23)C[C@H]1C (stereo partly shown) [Compound 307]
IC50 (Homo sapiens, NCI-H358, 0.5 h): < 100 nM

C=C(F)C(=O)N1CC[C@@H](N(C)c2nc(OC[C@@]34CCCN3C[C@H](F)C4)nc3c(F)c(-c4ccc(F)c5sc(N)nc45)c(C(F)(F)F)cc23)C1 [Compound 308]
IC50 (Homo sapiens, NCI-H358, 0.5 h): < 100 nM

C=CC(=O)N1C[C@H](N(C)c2nc(OC[C@@]34CCCN3C[C@H](F)C4)nc3cc(-c4ccc(F)c5sc(N)nc45)c(C(F)(F)F)cc23)C[C@H]1C [Compound 309]
IC50 (Homo sapiens, NCI-H358, 0.5 h): < 100 nM

C=CC(=O)N1CC[C@@H](N(C)c2nc(OC[C@@]34CCCN3C[C@H](F)C4)nc3c(F)c(-c4ccc(F)c5sc(C(F)F)nc45)c(C(F)(F)F)cc23)C1 [Compound 310]
IC50 (Homo sapiens, NCI-H358, 0.5 h): > 1000 nM

C=CC(=O)N1CC[C@@H](N(C)c2nc(OC[C@@]34CCCN3C[C@H](F)C4)nc3c(F)c(-c4ccc(F)c5sc(N)c(C#N)c45)ccc23)C1 [Compound 311]
IC50 (Homo sapiens, NCI-H358, 0.5 h): < 100 nM

C=CC(=O)N1C[C@H](C)N(c2nc(OC[C@@]34CCCN3C[C@H](F)C4)nc3c(F)c(-c4ccc(F)c5sc(N)c(C#N)c45)ccc23)C[C@H]1C [Compound 312]
IC50 (Homo sapiens, NCI-H358, 0.5 h): < 100 nM

C=CC(=O)N1C[C@@H](F)[C@@H](N(C)c2nc(OC[C@@]34CCCN3C[C@H](F)C4)nc3cc(-c4ccc(F)c5sc(N)c(C#N)c45)c(C(F)(F)F)cc23)C1 [Compound 315, 4-(4-(((3S,4R)-1-acryloyl-4-fluoropyrrolidin-3-yl)(methyl)amino)-2-(((2R,7aS)-2-fluorotetrahydro-1H-pyrrolizin-7a(5H)-yl)methoxy)-6-(trifluoromethyl)quinazolin-7-yl)-2-amino-7-fluorobenzo[b]thiophene-3-carbonitrile]
IC50 (Homo sapiens, NCI-H358, 0.5 h): < 100 nM

C=CC(=O)N1C[C@@H](F)[C@@H](N(C)c2nc(OC[C@@]34CCCN3C[C@H](F)C4)nc3c(F)c(-c4ccc(F)c5sc(N)c(C#N)c45)c(C(F)(F)F)cc23)C1 [Compound 316]
IC50 (Homo sapiens, NCI-H358, 0.5 h): < 100 nM

C=CC(=O)N1C[C@@H](F)[C@@H](N(C)c2nc(OC[C@@]34CCCN3C[C@H](F)C4)nc3cc(-c4ccc(F)c5sc(N)nc45)c(C(F)(F)F)cc23)C1 [Compound 317]
IC50 (Homo sapiens, NCI-H358, 0.5 h): < 100 nM

C=CC(=O)N1CCN(c2nc(OC[C@@]34CCCN3C[C@H](F)C4)nc3c(F)c(-c4ccc(F)c5sc(N)c(C#N)c45)c(C(F)(F)F)cc23)C[C@H]1C [Compound 318]
IC50 (Homo sapiens, NCI-H358, 0.5 h): < 100 nM

C=CC(=O)N1C[C@H](N(C)c2nc(OC[C@@]34CCCN3C[C@H](F)C4)nc3c(F)c(-c4ccc(F)c5sc(N)c(C#N)c45)ccc23)C[C@H]1C [Compound 319]
IC50 (Homo sapiens, NCI-H358, 0.5 h): < 100 nM

C=CC(=O)N1C[C@H](F)[C@@H](N(C)c2nc(OC[C@@]34CCCN3C[C@H](F)C4)nc3cc(-c4ccc(F)c5sc(N)c(C#N)c45)c(C(F)(F)F)cc23)C1 [Compound 320]
IC50 (Homo sapiens, NCI-H358, 0.5 h): < 100 nM

C=CC(=O)N1[C@@H](C)CN(c2nc(OC[C@@]34CCCN3C[C@H](F)C4)nc3c(F)c(-c4ccc(F)c5sc(N)c(C#N)c45)c(C(F)(F)F)cc23)C[C@@H]1C [Compound 321]
IC50 (Homo sapiens, NCI-H358, 0.5 h): < 100 nM

C=CC(=O)N1CCN(c2nc(OC[C@@]34CCCN3C[C@H](F)C4)nc3c(F)c(-c4ccc(F)c5sc(N)c(C#N)c45)c(C(F)(F)F)cc23)CC12CC2 [Compound 322]
IC50 (Homo sapiens, NCI-H358, 0.5 h): < 100 nM

C=CC(=O)N1C[C@H](C)N(c2nc(OC[C@@]34CCCN3C[C@H](F)C4)nc3c(F)c(-c4ccc(F)c5sc(N)c(C#N)c45)c(C#N)cc23)C[C@H]1C [Compound 324, 4-((2S,5R)-4-acryloyl-2,5-dimethylpiperazin-1-yl)-7-(2-amino-3-cyano-7-fluorobenzo[b]thiophen-4-yl)-8-fluoro-2-(((2R,7aS)-2-fluorotetrahydro-1H-pyrrolizin-7a(5H)-yl)methoxy)quinazoline-6-carbonitrile]
IC50 (Homo sapiens, NCI-H358, 0.5 h): < 100 nM

C=CC(=O)N1CC[C@@H](N(C)c2nc(OC[C@@]34CCCN3C[C@H](F)C4)nc3c(F)c(-c4ccc(F)c5sc(N)c(C#N)c45)c(C#N)cc23)C1 [Compound 325]
IC50 (Homo sapiens, NCI-H358, 0.5 h): < 100 nM
